Experiment [1] concerns the target Receptor tyrosine-protein kinase erbB-2 (Homo sapiens, UniProt P04626). Kind of experiment: In Vitro Tyrosine Kinase Enzyme Assay. Here is the method: (§1) Protein kinase assays were performed at ambient temperature for 20-40 min (depending on the target) in a final volume of 25 μl according to the following assay reaction recipe: […] of diluted active protein kinase target (~10-50 nM final protein concentration in the assay), 2.5 μl of peptide substrate, 3. μl of kinase assay buffer, 5 μl of compound or 10% DMSO, and 5 μl of 33P-ATP (250 μM stock solution, 0.8 mCi). The assay was initiated by the addition of 33P-ATP and the reaction mixture was incubated at ambient temperature for 20-40 min, depending on the protein kinase target. After the incubation period, the assay was terminated by spotting 10 μl of the reaction mixture onto Multiscreen phosphocellulose P81 plate. The Multiscreen phosphocellulose P81 plate was washed three times for approximately 15 min each in a 1% phosphoric acid solution. The radioactivity on the P81 plate (EMD Millipore Corporation, Billerica, MA) was counted in the presence of scintillation fluid in a Trilux scintillation counter (GMI Inc., Ramsey, MN).

The target of experiment [2] is Epidermal growth factor receptor (Homo sapiens, UniProt P00533). Kind of experiment: In Vitro Tyrosine Kinase Enzyme Assay. The method, then: as §1

In general, IC50 refers to the concentration that inhibits the measured activity by half. A higher IC50 goes with weaker potency in that assay.

Sequence of Receptor tyrosine-protein kinase erbB-2 (P04626 whole entry): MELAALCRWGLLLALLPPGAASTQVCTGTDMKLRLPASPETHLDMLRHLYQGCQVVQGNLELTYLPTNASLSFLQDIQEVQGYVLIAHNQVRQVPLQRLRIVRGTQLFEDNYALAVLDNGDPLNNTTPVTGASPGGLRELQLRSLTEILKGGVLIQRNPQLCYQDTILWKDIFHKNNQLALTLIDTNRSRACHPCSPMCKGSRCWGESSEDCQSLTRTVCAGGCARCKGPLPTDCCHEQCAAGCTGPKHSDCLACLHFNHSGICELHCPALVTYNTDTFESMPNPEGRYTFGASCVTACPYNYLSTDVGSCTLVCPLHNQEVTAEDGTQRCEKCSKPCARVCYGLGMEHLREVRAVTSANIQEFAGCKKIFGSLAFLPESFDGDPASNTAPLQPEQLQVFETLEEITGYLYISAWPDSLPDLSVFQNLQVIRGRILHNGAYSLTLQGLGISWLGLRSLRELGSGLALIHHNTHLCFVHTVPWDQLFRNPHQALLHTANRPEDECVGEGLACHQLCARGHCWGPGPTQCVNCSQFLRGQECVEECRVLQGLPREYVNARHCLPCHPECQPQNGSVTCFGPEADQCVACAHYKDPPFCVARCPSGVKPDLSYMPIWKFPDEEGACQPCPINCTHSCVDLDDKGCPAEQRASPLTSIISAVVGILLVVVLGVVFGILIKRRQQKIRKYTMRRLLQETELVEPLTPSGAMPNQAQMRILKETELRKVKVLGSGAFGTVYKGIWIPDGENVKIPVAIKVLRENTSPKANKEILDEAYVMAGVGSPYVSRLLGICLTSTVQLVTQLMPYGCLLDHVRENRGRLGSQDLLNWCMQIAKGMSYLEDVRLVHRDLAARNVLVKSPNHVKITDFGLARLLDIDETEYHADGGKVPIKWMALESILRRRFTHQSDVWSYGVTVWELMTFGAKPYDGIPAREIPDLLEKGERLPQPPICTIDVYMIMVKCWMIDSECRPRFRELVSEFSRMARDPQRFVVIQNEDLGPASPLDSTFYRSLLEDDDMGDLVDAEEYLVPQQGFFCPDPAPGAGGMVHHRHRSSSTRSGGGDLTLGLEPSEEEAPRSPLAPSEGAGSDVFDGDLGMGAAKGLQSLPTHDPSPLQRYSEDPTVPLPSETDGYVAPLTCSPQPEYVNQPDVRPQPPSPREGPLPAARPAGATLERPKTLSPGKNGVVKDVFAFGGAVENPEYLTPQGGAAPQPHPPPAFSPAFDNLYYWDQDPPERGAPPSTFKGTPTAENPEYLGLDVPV
Sequence of Epidermal growth factor receptor (P00533 whole entry): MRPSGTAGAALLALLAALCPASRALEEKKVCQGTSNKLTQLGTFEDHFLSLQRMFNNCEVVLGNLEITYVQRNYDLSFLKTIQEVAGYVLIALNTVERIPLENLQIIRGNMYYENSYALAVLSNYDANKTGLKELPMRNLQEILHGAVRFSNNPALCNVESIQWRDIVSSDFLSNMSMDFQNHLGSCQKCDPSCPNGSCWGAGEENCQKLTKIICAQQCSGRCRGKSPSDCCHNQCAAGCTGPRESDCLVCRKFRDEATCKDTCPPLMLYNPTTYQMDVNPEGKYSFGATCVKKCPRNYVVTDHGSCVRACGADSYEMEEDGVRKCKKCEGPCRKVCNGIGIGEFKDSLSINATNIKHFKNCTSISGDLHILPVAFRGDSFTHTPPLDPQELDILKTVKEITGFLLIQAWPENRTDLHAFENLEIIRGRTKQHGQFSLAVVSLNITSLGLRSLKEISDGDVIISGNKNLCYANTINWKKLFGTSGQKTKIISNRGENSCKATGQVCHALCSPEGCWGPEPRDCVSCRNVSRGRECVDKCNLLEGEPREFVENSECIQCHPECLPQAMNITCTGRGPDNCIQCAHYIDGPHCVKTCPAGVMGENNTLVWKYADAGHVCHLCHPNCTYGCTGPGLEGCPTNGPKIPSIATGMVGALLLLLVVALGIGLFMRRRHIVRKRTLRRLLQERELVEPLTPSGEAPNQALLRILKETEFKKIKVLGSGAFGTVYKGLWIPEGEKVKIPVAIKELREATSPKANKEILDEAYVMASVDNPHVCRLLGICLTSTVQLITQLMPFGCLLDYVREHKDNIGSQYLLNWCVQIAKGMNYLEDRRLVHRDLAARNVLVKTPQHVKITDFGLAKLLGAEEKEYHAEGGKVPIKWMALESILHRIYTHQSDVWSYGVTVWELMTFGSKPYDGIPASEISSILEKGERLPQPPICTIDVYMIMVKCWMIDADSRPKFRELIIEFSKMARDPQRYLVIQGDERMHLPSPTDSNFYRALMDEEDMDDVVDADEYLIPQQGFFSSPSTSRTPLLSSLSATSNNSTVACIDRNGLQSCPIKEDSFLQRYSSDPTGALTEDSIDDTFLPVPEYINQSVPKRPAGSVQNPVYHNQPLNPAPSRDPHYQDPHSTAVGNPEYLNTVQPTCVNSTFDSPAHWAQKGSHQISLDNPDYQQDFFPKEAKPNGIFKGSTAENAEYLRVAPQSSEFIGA

For `N#Cc1c(-c2ccc(F)cc2)cc(-c2ccc(Nc3ncnc4ccccc34)cc2)[nH]c1=N` [HER2/EGFR dual kinase inhibitor, 5d], the IC50 in experiment [1] is 3.98 µM; in experiment [2] it was 2090 nM.

In the case of `COc1cc2ncnc(Nc3ccc(-c4cc(-c5ccc(Br)cc5)c(C#N)c(=N)[nH]4)cc3)c2cc1OC` [HER2/EGFR dual kinase inhibitor, 5e], the IC50 in experiment [1] stood at 1.04 µM; in experiment [2], 1930 nM.

As to `COc1cc2ncnc(Nc3ccc(C(=O)/C=C/c4ccc(Cl)cc4)cc3)c2cc1OC` [(E)-3-(4-Chlorophenyl)-1-{4-[(6,7-dimethoxyquinazolin-4-yl)amino]phenyl}prop-2-en-1-one], the results for the IC50 in experiment [1] and in experiment [2] were 98.8 µM and 2580 nM, respectively.

(Values after BindingDB's records for doi:10.3109/14756366.2013.765417 (Msa University, 2014).)
